Paper PMC10608790, “Structural Diversity and Biological Activity of Cyanopeptolins Produced by Nostoc edaphicum CCNP1411” (Marine Drugs, 2023)
Like-named read-outs stand apart in the source and are kept apart here. Blank lines part the entries; values can stand above or below the compound they belong to.

Experiments:
thrombin = thrombin (Homo sapiens, UniProt P00734); experiment: Thrombin inhibition assay; type: biochemical; settings: highest concentration in the assay 45 µg × mL−1
Method: (§1) The enzyme inhibitory activity of cyanopeptolins was assayed against trypsin [108], chymotrypsin, thrombin [109], and elastase as described before. In brief, the samples were prepared and serially diluted (1 mg, 1:1—1:10,000 times) in 1% DMSO; the standard inhibitors: aprotinin (trypsin and chymotrypsin) AEBSF 4-(2-aminoethyl)benzenesulfonyl fluoride hydrochloride (thrombin), elastatinal (elastase) (all from Sigma Aldrich; St. Louis, MO, USA) were also prepared in 1% DMSO. DMSO (1%) without the addition of the enzyme served as a negative control. All tests were carried out in triplicates. After the incubation of the assay mixtures, the absorbances were measured at 405 nm (Varioskan Flash Thermo Fisher Scientific OY, Vantaa, Finland). The reduction in enzyme activity greater than 50% was considered as significant.

elastase [1] = target: T1, elastase (Sus scrofa, UniProt P00772); experiment: Elastase inhibition assay; type: biochemical; settings: for IC50: read-out: E (elastase) IC50; for E (elastase) inhibition class: class symbol instead of IC50
Method: as §1

[2] = tested on: human cervical cancer (HeLa) cell line; experiment: MTT assay on HeLa cells; type: cell-based; settings: 200 µg × mL−1, 24 h
Method: The cytotoxic activity of the selected 17 CPs against the HeLa cervical cancer cell line (Merck KGaA, Darmstadt, Germany) was assessed with the MTT (3-(4,5-dimethylthiazole-2-yl)-2,5-diphenyltetrazolium bromide) assay according to Felczykowska et al.. HeLa cells were seeded at 4 × 10^3 cells per well in DMEM medium (Merck KGaA) supplemented with 10% (v/v) fetal bovine serum (Merck KGaA) and penicillin-streptomycin solution (1% v/v, stock solution 50 u and 0.05 mg × mL^−1, respectively; Merck KGaA). Cells were allowed to attach overnight, and then the tested compounds prepared in 1% DMSO were added. After incubation (24 h), 25 µL of MTT solution (4 mg × mL^−1; Merck KGaA) were added and then the samples were incubated for another 4 h. The formazan crystals were dissolved with 100% DMSO and absorbance was measured with Spectramax i3 (Molecular Deviecs, LLC San Jose, CA, USA). The reduction in cell viability greater than 60% was considered as significant.

breast cancer cell line = tested on: breast cancer cell line; parameters: method as in PMID 29949853; settings: up to 500 µg × mL−1; cited from earlier work
chymotrypsin [3] = target: T2, chymotrypsin (Bos taurus, UniProt P00766); parameters: method as in PMID 29949853; settings: results published earlier; read-out: CHY (chymotrypsin) IC50, value marked *; cited from earlier work
breast cancer cells = tested on: breast cancer cells; parameters: method as in PMID 29405541; settings: cited from earlier work
[4] = tested on: neuro-2a neuroblastoma cells; parameters: method as in PMID 18163584; settings: cited from earlier work
H-460 lung cancer cells = tested on: H-460 lung cancer cells; parameters: method as in PMID 18163584; settings: cited from earlier work
[5] = tested on: KB human epithelial carcinoma cells; parameters: method as in PMID 12762794; settings: cited from earlier work
enzymes = tested on: enzymes; parameters: method as in PMID 20028081; settings: cited from earlier work
chymotrypsin [6] = target: T2, chymotrypsin; experiment: Chymotrypsin inhibition assay; type: biochemical; settings: class symbol instead of IC50
Method: as §1, with “In” for “The enzyme inhibitory activity of cyanopeptolins was assayed against trypsin [108], chymotrypsin, thrombin [109], and elastase as described before. In”

trypsin = target: T3, trypsin (Bos taurus, UniProt P00760); experiment: Trypsin inhibition assay; type: biochemical; settings: for activity against serine proteases (in words): Arg2-containing CPs lacking the side-chain, Table 1 enzymes; for TRY (trypsin) inhibition class: class symbol instead of IC50
T3 sequence (P00760 24-246): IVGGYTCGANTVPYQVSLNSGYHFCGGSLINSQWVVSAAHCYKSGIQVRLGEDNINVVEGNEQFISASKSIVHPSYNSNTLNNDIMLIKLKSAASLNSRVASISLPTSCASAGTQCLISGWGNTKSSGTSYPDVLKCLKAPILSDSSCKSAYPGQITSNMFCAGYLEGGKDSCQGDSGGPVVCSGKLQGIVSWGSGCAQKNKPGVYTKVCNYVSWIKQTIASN
Method: as §1

HeLa S3 cells = tested on: HeLa S3 cells; parameters: method as in doi:10.1016/j.tet.2019.04.046; settings: cited from earlier work
elastase [7] = target: T1, elastase; parameters: method as in doi:10.1016/j.tet.2019.04.046; settings: cited from earlier work

T1 sequence (P00772 27-266): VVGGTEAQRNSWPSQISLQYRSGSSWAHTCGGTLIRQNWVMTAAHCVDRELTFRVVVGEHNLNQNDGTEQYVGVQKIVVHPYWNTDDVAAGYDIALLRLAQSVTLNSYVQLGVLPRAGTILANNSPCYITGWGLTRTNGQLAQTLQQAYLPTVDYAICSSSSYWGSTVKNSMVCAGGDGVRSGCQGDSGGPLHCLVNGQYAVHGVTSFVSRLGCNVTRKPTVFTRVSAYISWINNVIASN

Compound: CCCC(=O)NC(CC(=O)O)C(=O)NC1C(=O)NC(CC(C)C)C(=O)NC2CCC(O)N(C2=O)C(Cc2ccccc2)C(=O)N(C)C(Cc2ccccc2)C(=O)NC(C(C)C)C(=O)OC1C (centres unmarked) [CP 919, [Thr + Leu + Ahp + Phe + MePhe + Val]Asp + BA]
TRB (thrombin) inhibition class (thrombin): − (not active (inhibition below 50%)) | IC50 (elastase [1]): 5.71 µM | reduction in cell viability versus control [2]: 97.6%

Compound: CC(=O)NC(CC(=O)O)C(=O)NC1C(=O)NC(Cc2ccc(O)cc2)C(=O)NC2CCC(O)N(C2=O)C(Cc2ccccc2)C(=O)N(C)C(Cc2ccccc2)C(=O)NC(C(C)C)C(=O)OC1C (centres unmarked) [CP 941, [Thr + Tyr + Ahp + Phe + MePhe + Val]Asp + Ac]
TRB (thrombin) inhibition class (thrombin): − (not active (inhibition below 50%)) | E (elastase) inhibition class (elastase [1]): − (not active (inhibition below 50%))

TRB (thrombin) inhibition class (thrombin): − (not active (inhibition below 50%)) | IC50 (elastase [1]): 3.32 µM
Compound: CCCC(=O)NC(CC(=O)O)C(=O)NC1C(=O)NC(CC(C)C)C(=O)NC2CCC(O)N(C2=O)C(Cc2ccccc2)C(=O)N(C)C(Cc2ccc(OC)cc2)C(=O)NC(C(C)C)C(=O)OC1C (centres unmarked) [CP 949, [Thr + Leu + Ahp + Phe + diMeTyr + Val]Asp + BA]
reduction in cell viability versus control [2]: 71.5%

Compound: CCCC(=O)N[C@@H](CC(=O)O)C(=O)N[C@@H]1C(=O)N[C@@H](CCCNC(=N)N)C(=O)N[C@H]2CC[C@@H](O)N(C2=O)[C@@H](Cc2ccccc2)C(=O)N(C)[C@@H](Cc2ccccc2)C(=O)N[C@@H](C(C)C)C(=O)O[C@@H]1C [CP 962, [Thr + Arg + Ahp + Phe + MePhe + Val]Asp + BA]
cytotoxic activity (in words) (breast cancer cell line): no effects were observed

Compound: CCCC(=O)N[C@@H](CC(=O)O)C(=O)N[C@@H]1C(=O)N[C@@H](CCCNC(=N)N)C(=O)N[C@H]2CC[C@@H](O)N(C2=O)[C@@H](Cc2ccccc2)C(=O)N(C)[C@@H](Cc2ccc(O)cc2)C(=O)N[C@@H](C(C)C)C(=O)O[C@@H]1C [CP 978, [Thr + Arg + Ahp + Phe + MeTyr + Val]Asp + BA]
IC50 (chymotrypsin [3]): 3.8 µM | reduction in cell viability versus control [2]: 62.5%

TRB (thrombin) inhibition class (thrombin): − (not active (inhibition below 50%)) | E (elastase) inhibition class (elastase [1]): − (not active (inhibition below 50%))
Compound: CCCC(=O)NC(CC(=O)O)C(=O)NC1C(=O)NC(Cc2ccccc2)C(=O)NC2CCC(O)N(C2=O)C(Cc2ccccc2)C(=O)N(C)C(Cc2ccc(OC)cc2)C(=O)NC(C(C)C)C(=O)OC1C (centres unmarked) [CP 983, [Thr + Phe + Ahp + Phe + diMeTyr + Val]Asp + BA]

Compound: CCCC(=O)N[C@@H](CC(=O)O)C(=O)N[C@@H]1C(=O)N[C@@H](Cc2ccc(O)cc2)C(=O)N[C@H]2CC[C@@H](O)N(C2=O)[C@@H](Cc2ccccc2)C(=O)N(C)[C@@H](Cc2ccc(O)cc2)C(=O)N[C@@H](C(C)C)C(=O)O[C@@H]1C [CP 985, [Thr + Tyr + Ahp + Phe + MeTyr + Val]Asp + BA]
cytotoxic activity (in words) (breast cancer cell line): no effects were observed

Compound: CCCCCC(=O)NC(CC(=O)O)C(=O)NC1C(=O)NC(CCCNC(=N)N)C(=O)NC2CCC(O)N(C2=O)C(Cc2ccccc2)C(=O)N(C)C(Cc2ccccc2)C(=O)NC(C(C)C)C(=O)OC1C (centres unmarked) [CP 990, [Thr + Arg + Ahp + Phe + MePhe + Val]Asp + HA]
TRB (thrombin) inhibition class (thrombin): − (not active (inhibition below 50%)) | E (elastase) inhibition class (elastase [1]): − (not active (inhibition below 50%))

TRB (thrombin) inhibition class (thrombin): − (not active (inhibition below 50%)) | E (elastase) inhibition class (elastase [1]): − (not active (inhibition below 50%))
Compound: CCCC(=O)NC(CC(=O)O)C(=O)NC1C(=O)NC(Cc2ccc(O)cc2)C(=O)NC2CCC(O)N(C2=O)C(Cc2ccccc2)C(=O)N(C)C(Cc2ccc(OC)cc2)C(=O)NC(C(C)C)C(=O)OC1C (centres unmarked) [CP 999, [Thr + Tyr + Ahp + Phe + diMeTyr + Val]Asp + BA]

Compound: C/C=C1\NC(=O)[C@@H](NC(=O)[C@@H](NC(=O)[C@H](C)NC(=O)CCC)[C@@H](C)O)[C@@H](C)OC(=O)[C@H](C(C)C)NC(=O)[C@H](Cc2ccc(O)cc2)N(C)C(=O)[C@H](Cc2ccccc2)N2C(=O)[C@H](CC[C@H]2O)NC1=O [molassamide]
effect on elastase-mediated migration (in words) (breast cancer cells): inhibiting

Compound: CCCC(=O)N[C@@H](CCC(N)=O)C(=O)N[C@@H]1C(=O)N[C@@H](CCCNC(N)=O)C(=O)N[C@H]2CC[C@@H](O)N(C2=O)[C@@H]([C@@H](C)CC)C(=O)N(C)[C@@H](Cc2ccc(OC)c(Br)c2)C(=O)N[C@@H](C(C)C)C(=O)O[C@@H]1C [symplocamide A]
cytotoxic effect (in words) [4]: affected | cytotoxic effect (in words) (H-460 lung cancer cells): affected

Compound: CCCC(=O)N[C@H](C(=O)N[C@@H]1C(=O)N[C@@H](CC(C)C)C(=O)N[C@H]2CC[C@@H](O)N(C2=O)[C@@H](CC(C)C)C(=O)N(C)[C@@H](Cc2ccccc2)C(=O)N[C@@H](C(C)C)C(=O)O[C@@H]1C)C(C)C [tasipeptin A]
cytotoxic effect (in words) [5]: cytotoxic

Compound: CCCC(=O)N[C@@H]1C(=O)N[C@@H](CC(C)C)C(=O)N[C@H]2CC[C@@H](O)N(C2=O)[C@@H](CC(C)C)C(=O)N(C)[C@@H](Cc2ccccc2)C(=O)N[C@@H](C(C)C)C(=O)O[C@@H]1C [tasipeptin B]
cytotoxic effect (in words) [5]: cytotoxic

Compound: Micropeptin MZ771
effect on the activity of enzymes (in words) (enzymes): did not affect the activity of enzymes

Compound: [Thr + Arg + Ahp + Phe + MePhe + Val] [CP 778]
CHY (chymotrypsin) inhibition class (chymotrypsin [6]): − (not active (inhibition below 50%)) | TRB (thrombin) inhibition class (thrombin): − (not active (inhibition below 50%)) | activity against serine proteases (in words) (trypsin): not active | TRY (trypsin) inhibition class (trypsin): − (not active (inhibition below 50%)) | E (elastase) inhibition class (elastase [1]): − (not active (inhibition below 50%))

Compound: [Thr + Arg + Ahp + Phe + diMeTyr + Val] [CP 809]
CHY (chymotrypsin) inhibition class (chymotrypsin [6]): − (not active (inhibition below 50%)) | TRB (thrombin) inhibition class (thrombin): − (not active (inhibition below 50%)) | activity against serine proteases (in words) (trypsin): not active | TRY (trypsin) inhibition class (trypsin): − (not active (inhibition below 50%)) | E (elastase) inhibition class (elastase [1]): − (not active (inhibition below 50%))

Compound: [Thr + Phe + Ahp + Phe + diMeTyr + Val]Asp + HA [CP 1011]
CHY (chymotrypsin) inhibition class (chymotrypsin [6]): − (not active (inhibition below 50%)) | TRB (thrombin) inhibition class (thrombin): − (not active (inhibition below 50%)) | TRY (trypsin) inhibition class (trypsin): − (not active (inhibition below 50%)) | E (elastase) inhibition class (elastase [1]): − (not active (inhibition below 50%))

Compound: [Thr + Tyr + Ahp + Phe + MePhe + Val]Asp + OA [CP 1025]
CHY (chymotrypsin) inhibition class (chymotrypsin [6]): +/− (low activity (inhibition between 50 and 60%)) | TRB (thrombin) inhibition class (thrombin): − (not active (inhibition below 50%)) | TRY (trypsin) inhibition class (trypsin): − (not active (inhibition below 50%)) | E (elastase) inhibition class (elastase [1]): − (not active (inhibition below 50%))

Compound: kyanamide
cytotoxic effect (in words) (HeLa S3 cells): moderately cytotoxic | IC50 (elastase [7]): 0.00013 µM
